Patent publication US20240238256A1, “NITAZOXANIDE IN THE TREATMENT OF SEPSIS” (GENFIT, priority 2021, published 2024)

What was measured:
[1] = tested on: caspase 3/7 activity in HepG2 cells; test: TNFα-induced apoptosis (caspase 3/7 activity) in HepG2 cells; type: cell-based, human; conditions: for increased caspase 3/7 activity: 24 hours
Procedure: In order to evaluate the effect of NTZ on human hepatocytes that undergo a cellular stress induced by cytokines, the human hepatoblastoma-derived HepG2 cell line (#85011430, ECACC, UK) was cultured with or without TZ, the active metabolite of NTZ, in high-glucose DMEM medium (#41965, Gibco, France) supplemented with 10% of fetal bovine serum (FBS, #10270, Gibco), 1% penicillin/streptomycin (#15140, Gibco), 1% sodium pyruvate (#11360, Gibco) and 1% MEM non-essential amino acids (#11140, Gibco) in a 5% CO2 incubator at 37° ° C. To evaluate caspase 3/7 activity, which is a surrogate marker of apoptosis, 5×10^4 cells were plated in a 96-well plate (Thermo Fischer, Germany). After cell adherence (8 hours), cells were pre-treated with a dose range of 0.3 to 3 μM of TZ (Interchim, France), in FBS-deprived cell culture medium for 16 h. Thereafter, tumor necrosis factor α (TNFα) (#C6378, Promocell, Germany) was added to the wells at the dose of 10 or 30 ng/ml for additional 24 hours. Staurosporine (10 μM) (#19-123MG, Sigma-Aldrich, Germany) was used as a reference to induce apoptosis. Cells were incubated with staurosporine 3 hours before Caspase activity measurement. Caspase 3/7 activity was measured using Caspase Glow™ 3/7 assay (#G8093, Promega, USA). Luminescence was measured using a Spark microplate reader (#30086376, Tecan, USA). The amount of luminescence (RLU) directly correlates with caspase 3/7 activity.

[2] = tested on: polymicrobial sepsis induced by cecal ligation and puncture (CLP); test: CLP-induced polymicrobial sepsis, survival (Example 1); type: in vivo, C57BL6J male mice
Source text: Polymicrobial sepsis induced by cecal ligation and puncture (CLP) is characterized by dysregulated systemic inflammatory responses followed by immunosuppression. The CLP model in mice mimics the progression and features of human sepsis and is thus also useful to determine whether a drug would be efficient in the treatment of prevention of transition from sepsis to septic shock.
This study aims to investigate the efficacy of NTZ in CLP model in C57BL6J (BL6) male mice. The efficacy of the test compound was evaluated based on the survival rate of the animals within the study period.
C57BL6J male mice (supplier Janvier—France) at 9 weeks of age and weighing 23-25 g on arrival were anesthetized with 250 µL of xylazine/ketamine solution (6.75 mg/kg for ketamine (Imalgene, Boehringer, Germany) et 2.5 mg/kg for xylazine (Rompund 2%, Bayer, Germany)) by intraperitoneal route. A 1-1.5 cm abdominal midline incision was made, and the cecum was located and tightly ligated at half the distance between distal pole and the base of the cecum with 4-0 silk suture (mild grade). The caecum was punctured through-and-through once with a 21-gauge needle from mesenteric toward antimesenteric direction after medium ligation. A small amount of stool was extruded to ensure that the wounds were patent. Then the cecum was replaced in its original position within the abdomen, which was closed with sutures and wound clips. Mice were followed for body weight evolution and mortality rate until Day 7.
NTZ (Interchim, France) was administered by oral gavage at 50 mg/kg BID. NTZ treatment was initiated 3 days before CLP. The day of the surgery, NTZ was given once (50 mg/kg) 1 h before CLP and then a second time when animals have recovered from anesthesia (50 mg/kg). BID treatments was then pursued daily until the end of the study (n=15). Mice receiving NTZ vehicle (carboxymethylcellulose (#C4888, Sigma-Aldrich, Germany) BID served as controls (n=10). […]

[3] = tested on: caspase 3/7 activity in HepG2 cells; test: Staurosporine-induced apoptosis (caspase 3/7 activity) in HepG2 cells; type: cell-based, human; conditions: for inhibition at 6 µM: Homo sapiens, HepG2, 6 μM
Procedure: The human hepatoblastoma-derived HepG2 cell line was cultured as described in Example 2. Caspase 3/7 activity was assessed in 1.5×10^4 cells plated in a 384-well plate (#781080, Greiner, France). After cell adherence (8 hours), cells were serum starved for 16 h with or without TZ, the active metabolite of NTZ. […] Caspase 3/7 activity was measured as previously described.

[4] = tested on: polymicrobial sepsis induced by CLP surgery; test: CLP-induced sepsis, survival and welfare scoring, NTZ with or without 3-day pretreatment (Example 4); type: in vivo, C57BL6J mice; conditions: for mortality at 55 hours post-surgery: control group 60%; for mice survived sepsis at the end of the study: untreated 12.5%
Procedure: Polymicrobial sepsis was induced by CLP surgery in C57BL6J mice, as described in Example 1. NTZ was prepared as previously described and administrated per os at 100 mg/kg/day BID either starting 3 days before CLP (3 day pretreatment) or starting on the same day as the CLP surgery (without pretreatment) as shown in FIG. 5A. C57BI/6J male mice (8 week-old, Janvier, France) were divided into 3 groups of 24 mice each, after 7 days acclimation: • Group 1 received vehicle for 3 days before surgery and for 6 days after CLP surgery. • Group 2 received nitazoxanide (NTZ) for 3 days before surgery and then for 6 days after CLP surgery (pretreatment). • Group 3 received vehicle for 3 days before surgery and then NTZ for 6 days after CLP surgery (without pretreatment).
Treatments with NTZ were made twice daily at 9 am and […]. The day of the CLP surgery (Day 0), mice received NTZ or vehicle one hour before being anaesthetized (groups 2 and 3).
Welfare scoring of severity of murine sepsis model has been published to harmonize human end points and also to normalize grades observed between animals throughout experiments (Shrum B, Anantha R V, Xu S X et al. A robust scoring system to evaluate sepsis severity in an animal model. BMC Res Notes 2014; 7:233). Animals were individually observed, and changes were recorded and scored according to their intensity. Observations included changes in appearance, activity, response to stimuli, eyes opening, breathing quality and evolution of body weight. For each of these clinical signs, the severity was measured on a scale of 0 to 3. The evolution of the severity was followed and the mean score at each time point was calculated and plotted on graphs. Arbitrary, when mice die or are euthanized, they are scored at 4.

[5] = tested on: polymicrobial sepsis induced by CLP surgery; test: CLP-induced sepsis, survival and welfare scoring, NTZ before/after or only after surgery (Example 5); type: in vivo, C57BL6J mice; conditions: for mortality at 55 hours post-surgery: control group 55%; for mice survived sepsis at the end of the study (day 7): untreated 20%
Procedure: Polymicrobial sepsis was induced by CLP surgery in C57BL6J mice, and NTZ was prepared and administrated per os, as described previously. […]
During the 6 days following the surgery, treatments with NTZ were made twice daily at 9 am and 5 pm at the dose of 100 mg/kg/day (p.o. BID) per mouse. Control mice received vehicle the same way to avoid any deviations between control and treated mice.

[6] = concomitant addition with staurosporine, without pretreatment
[7] = NTZ per os 100 mg/kg/day BID from day of CLP, without pretreatment
[8] = NTZ per os 100 mg/kg/day BID with 3-day pretreatment
[9] = NTZ BID T-1 h/T+3.5 h, 100 mg/kg/day p.o.
[10] = NTZ QD T+3.5 h (100 mg/kg) then 50 mg/kg BID p.o.

TNFα
increased caspase 3/7 activity ([1]; 10 ng/ml TNFα): 1.5 fold
increased caspase 3/7 activity ([1]; 30 ng/ml TNFα): 1.7 fold

C[C@@H](O)[C@H]1C(=O)N2C(C(=O)O)=C(S[C@@H]3CN[C@H](C(=O)Nc4cccc(C(=O)O)c4)C3)[C@H](C)[C@H]12 [Ertapenem]
mice saved at the end of the study ([2]; Ertapenem 10 mg/kg intraperitoneal, 1 h before surgery and daily after CLP, Day 7): 10%

CN[C@@H]1C[C@H]2O[C@@](C)([C@@H]1OC)n1c3ccccc3c3c4c(c5c6ccccc6n2c5c31)C(=O)NC4 [staurosporine]
increase of caspase 3/7 activity ([3]; staurosporine 30 μM, 4 hours): 11 fold

O=C(Nc1ncc([N+](=O)[O-])s1)c1ccccc1O [TZ, tizoxanide]
inhibition at 3 µM ([1]; Homo sapiens, 3 μM TZ, 16 h pretreatment, 10 ng/ml TNFα): 40%
reduction of caspase activity ([1]; TZ pretreatment, higher TNFα dose (30 ng/ml)): this effect was confirmed with the higher TNFα dose
inhibition at 6 µM ([3]; 16 h pretreatment, staurosporine 30 μM): 82%
inhibition at 6 µM [3, 6]: 64%

CC(=O)Oc1ccccc1C(=O)Nc1ncc([N+](=O)[O-])s1 [NTZ, [2-[(5-nitro-1,3-thiazol-2-yl)carbamoyl]phenyl]ethanoate]
mice survived 7 days after intervention ([2]; NTZ oral gavage 50 mg/kg BID, started 3 days before CLP): 33%
mice still alive 3 days after surgery ([2]; NTZ oral gavage 50 mg/kg BID, started 3 days before CLP, vehicle group 100% mortality at 3 days): 47%
inhibition at 6 µM [3, 6]: 78%
mortality at 55 hours post-surgery [4, 7]: 17%
mice survived sepsis at the end of the study [4, 7]: 58.3%
mortality at 55 hours post-surgery [4, 8]: 25%
mice survived sepsis at the end of the study [4, 8]: 45.8%
mortality at 55 hours post-surgery [5, 9]: 5%
mice survived sepsis at the end of the study (day 7) [5, 9]: 80%
mortality at 55 hours post-surgery [5, 10]: 15%
mice survived sepsis at the end of the study (day 7) [5, 10]: 70%
